In ChEMBL document CHEMBL1121764, “Synthesis of some novel amodiaquine analogues as potential antimalarial and antifilarial compounds” (J Med Chem, 1981):

Assays:
[1] = test system: breinlia booliati; test: Time taken for In vitro anti-filarial activity to immobilize breinlia booliati (adult worms); assay type: functional
[2] = species: Mus musculus; test: Lethal dose that killed mice in 48 hr; assay type: toxicity, organism-based; conditions: in vivo
[3] = test system: breinlia booliati; test: Time taken for In vitro anti-filarial activity to immobilize breinlia booliati (Microfilaria); assay type: functional
[4] = Ratio of activity of quinine versus compound against Plasmodium berghei in mice; assay type: functional
[5] = species: Mus musculus; test: Minimum effective dose which on 5th day reduced the mean infection level to one-fiftieth of the control; assay type: functional
[6] = species: Mus musculus; test: Minimum effective dose which on 5th day reduced the mean infection level to one-fiftieth of the control; No activity observed at a dose range of 0.05-2.0 mg (HCl) per 20 g

For COc1ccc(Nc2ccnc3cc(Cl)ccc23)cc1CNC(=O)N1CCN(C)CC1, the TIME [1] was 5 h, the LD app [2] was 0.68 mM/kg and the TIME [3] was 7 h. The Ratio [4] was 2.8 and the MED [5] was 0.43 (mg of base) 20g-1.

CCN(CC)C(=O)N1CCN(Cc2cc(Nc3ccnc4cc(Cl)ccc34)ccc2OC)CC1 gave a TIME [1] of 3 h, an LD app [2] of 0.41 mM/kg and a TIME [3] of 6 h. The Ratio [4] was 2.8 and the MED [5] was 0.43 (mg of base) 20g-1.

CCN(Cc1cc(Nc2ccnc3cc(Cl)ccc23)ccc1OC)C(=O)N1CCN(C)CC1 showed a TIME [1] of 3 h, an LD app [2] of 0.63 mM/kg and a TIME [3] of 3 h. For the same molecule, the Ratio [4] was 2.8 and the MED [5] was 0.43 (mg of base) 20g-1.

For CCN(CC)C(=O)N1CCN(Cc2cc(Nc3ccnc4cc(Cl)ccc34)ccc2O)CC1, the TIME [1] was 3 h, the LD app [2] was 0.37 mM/kg and the TIME [3] was 6 h. The Ratio [4] was 2.8 and the MED [5] was 0.43 (mg of base) 20g-1.

CCN(Cc1cc(Nc2ccnc3cc(Cl)ccc23)ccc1O)C(=O)N1CCN(C)CC1 showed a TIME [1] of 3 h, an LD app [2] of 0.76 mM/kg and a TIME [3] of 3 h. For the same molecule, the Ratio [4] was 5.8 and the MED [5] was 0.21 (mg of base) 20g-1.

For CCN(CC)C(=O)N(CC)Cc1cc(Nc2ccnc3cc(Cl)ccc23)ccc1O, the TIME [1] was 8 h, the MED [6] was “No activity” and the TIME [3] was 8 h.

Molecule CCN(CC)Cc1cc(Nc2ccnc3cc(Cl)ccc23)ccc1O.Cl has a TIME [1] of 3 h, an LD app [2] of 0.32 mM/kg and a TIME [3] of 3 h. The Ratio [4] was 15.8 and the MED [5] was 0.077 (mg of base) 20g-1.

With CCN(CC)C(=O)N1CCN(C)CC1 [DIETHYLCARBAMAZINE] the TIME [1] was 2 h, the LD app [2] was 1.34 mM/kg and the TIME [3] was 4 h.

With CCN(CC)C(=O)N(CC)Cc1cc(Nc2ccnc3cc(Cl)ccc23)ccc1OC the TIME [1] was 8 h, the MED [6] was “No activity” and the TIME [3] was 8 h.

With CCN(CC)C(=O)NCc1cc(Nc2ccnc3cc(Cl)ccc23)ccc1OC the TIME [1] was 8 h, the MED [6] was “No activity” and the TIME [3] was 8 h.

Molecule CN1CCN(C(=O)NCc2cc(Nc3ccnc4cc(Cl)ccc34)ccc2O)CC1 has a TIME [1] of 5 h, an LD app [2] of 0.66 mM/kg and a TIME [3] of 7 h. The Ratio [4] was 28.4 and the MED [5] was 0.043 (mg of base) 20g-1.

In the case of CCN(CC)C(=O)NCc1cc(Nc2ccnc3cc(Cl)ccc23)ccc1O, the TIME [1] was 8 h, the MED [6] was “No activity” and the TIME [3] was 8 h.
